Data: BigSolDB 2.1

Cc1c(Br)cccc1C(=O)O
solubility (mole fraction)
Conditions	in DMF	in THF	in acetonitrile	in cyclohexane	in ethanol	in ethyl acetate	in methanol
278.15 K	0.104	0.169	0.00326	–	0.0358	0.027	0.0205
283.15 K	0.126	0.183	0.00387	0.00076	0.0398	0.031	0.0261
288.15 K	0.152	0.196	0.00473	0.00092	0.0449	0.0359	0.0301
293.15 K	0.181	0.209	0.006	0.00113	0.0513	0.0413	0.0355
298.15 K	0.216	0.222	0.00665	0.00135	0.0563	0.0464	0.041
303.15 K	0.258	0.236	0.00779	0.00162	0.0631	0.0524	0.0479
308.15 K	0.305	0.248	0.00955	0.00197	0.0703	0.0601	0.0559
313.15 K	0.361	0.26	0.0113	0.00249	0.0831	0.0677	0.0641
318.15 K	0.424	0.271	0.0138	0.00312	0.0936	0.0775	0.0724
323.15 K	0.5	0.282	0.0164	0.00422	0.104	0.0879	0.0815
328.15 K	0.584	0.293	0.0194	0.00529	0.121	0.101	0.0895
